Reference: patent US11814405B2, “Pyridine sulfonamide phosphate compound, preparation method therefor, and use thereof” (Shanghai Xunhe Pharmaceutical Technology Co. Ltd., priority 2019, dated 2023)
“Also recorded” adds a separate entry of the source.

Assays:
Male SD rats = test: Comparison of diuretic effects: urine output in saline-loaded rats; type: in vivo, rat; details: 10 mg/kg, ig, after 30 mL/kg normal saline, urine collected for 4 h
Description: Male SD rats (body weight: 180±20 g) were randomly divided into 14 groups with 3 rats in each group. Each rat was administrated 30 mL/kg normal saline through intragastric administration. After intragastric administration of normal saline, except the blank control group, each group was administrated one drug (10 mg/kg, ig, 1 mg/mL, formulation prescription: normal saline dissolution). Urination for 4 h was collected.

[1] = Comparison of water solubility; details: for Phenomenon: at the API:water ratio given
[2] = cited from earlier work
[3] = active metabolite in vivo, compared with torsemide (Drugs 41 (1): 81-103, 1991); cited from earlier work

| Phenomenon [1] | Conclusion (water solubility) [1] | Compound | Urine output (Male SD rats) [mL/kg] | solubility in water [2] | pharmacological activity [3] | solubility in 0.1 mol/L sodium hydroxide solution ([2]; 0.1 mol/L sodium hydroxide solution) |
| --- | --- | --- | --- | --- | --- | --- |
| Completely dissolved | Slightly soluble | Cc1cc(Nc2ccncc2S(=O)(=O)NC(=O)NC(C)C)ccc1O [Compound M3] | 107.2 | has not been effectively improved | comparable to torsemide | – |
| Completely dissolved | Very slightly | Cc1cccc(Nc2ccncc2S(=O)(=O)NC(=O)NC(C)C)c1 [Torsemide, 1-[4-(3-methylphenyl)aminopyridin-3-yl]sulfonyl-3-isopropylurea] | 105.3 | almost insoluble in water; also recorded: very slightly soluble in water | – | slightly soluble |
